# Test results as given in US20230201426A1, “GEL COMPOSITION AND PRODUCTION METHOD THEREFOR, AND THREE-DIMENSIONAL TISSUE BODY AND PRODUCTION METHOD THEREFOR” (TOPPAN INC., priority 2020, published 2023).
# Tested on: human mammary gland cancer cells (MDA-MB-231)
# Experiment: Viability of cells cultured after mixing the cell suspension with the Pt^2+ solution alone
# Format: cell-based
# Settings: final concentration of Pt^2+ 0.05 mM to 0.5 mM
structure (smiles),measurement,value
"[Cl][Pt-2]([Cl])([Cl])[Cl].[K+].[K+] [Pt^2+ solution, Potassium tetrachloroplatinate(II) (K2PtCl4)]",cytotoxicity,significant cytotoxicity was not recognized
